Data: patent publication US20030050274A1, “Composition containing S-adenosylmethionine for treating or preventing insulin resistance syndrome” (priority 2001, published 2003)

Key:
Assay type in all cases: in vivo, rat
SD-based rats = assay: Toxicity of orally administered S-adenosylmethionine
Experimental: 8 six-week-old, specific pathogen-free SD-based rats were evenly divided into four groups, which were orally administered with S-adenosylmethionine suspended in a 0.5% methylcellulose solution at a dose of 50, 100, 200 and 500 mg SAMe/kg body weight, respectively. […] Every 12 hours thereafter, the weight changes of the rats were recorded to examine the effect of S-adenosylmethionine. Further, on the 10th day, the rats were sacrificed and the internal organs were visually examined.

[1] = system: OLETF (Otsuka Long Evans Tokushima Fatty) rats; assay: Glucose load test
Experimental: (§1) 14 six-week-old OLETF (Otsuka Long Evans Tokushima Fatty) rats (Otsuka Research Lab., Tokushima, bred for use as a non-insulin-dependent diabetes mellitus model) were evenly divided into two injection groups. The rats of two groups were administered into the abdominal cavity either with S-adenosylmethionine (SAMe(+) group) or with a vehicle containing L-lysine (SAMe(−) group) at a daily dose of 15 mg/kg body weight for a duration of up to 19 weeks. 7 six-week-old LETO (Long Evans Tokushima Otsuka) rats (Otsuka Research Lab., Tokushima, normal rats) were used as a normal control group (Control group). The rats of each group were examined for their weight changes, and checked by way of conducting glucose load tests and euglycemic hyperinsulinemic clamp tests to measure the effect of S-adenosylmethionine on the insulin secretion and insulin sensitivity.
(§2) Test data were analyzed to represent each test result in the form of mean±standard error mean. Differences in weight changes among the groups were analyzed by ANOVA with Least Significance Difference using SPSS/PC 10.0, and the differences in glucose load and clamp test results, by the Kruskall-Wallis test and checked using the Mann-Whitney probation method. The significance level was set at a p value of 0.05 or below.
On the 19th week after the administration had begun, the rats were starved for 6 hours and a 35% glucose solution (0.5 g glucose/kg body weight) was bolus-infused into each rat through the tail artery. At 0, 2, 6, 8, 10, 15, 20 and 30 minites after the infusion, a 200 μl blood sample was taken from the tail artery of each rat, centrifuged and the plasma supernatant was separated. The blood glucose level was determined by employing YSI 2300.
In addition, the glucose loss rate ( % /min) was calculated from the inclination of log-converted values of glucose concentrations measured during 2 to 15 minutes after the infusion. The glucose loss rates of the SAM(+) and SAM(−) groups were similar at 3.69±0.29 and 3.23±0.32%/min, respectively, while that of the Control group was much higher at 5.13±0.29%/min.

[2] = system: OLETF (Otsuka Long Evans Tokushima Fatty) rats; assay: Weight change of OLETF rats administered S-adenosylmethionine; design: Body Weight: dose or concentration left out as unconfirmed
Experimental: as §1, §2
(1-1) Weight Change At 0, 1, 2, 4, 8, 13, 16 and 19 weeks after the administration had begun, the weight changes of the rats of the three groups were recorded.

[3] = system: OLETF (Otsuka Long Evans Tokushima Fatty) rats; assay: Euglycemic hyperinsulinemic clamp test
Experimental: as §1, with “The rats of each group were examined for their weight changes, and checked by way of conducting glucose load tests and euglycemic hyperinsulinemic clamp tests to measure the effect of S-adenosylmethionine on the insulin secretion and insulin sensitivity.” left out
as §2, with “The significance level was set at a p value of 0.05 or below.” left out
Based on the fact that the amount of glucose infused to maintain the steady basal level is equal to the amount of glucose consumed in the body, insulin resistance of each group was determined from the mean glucose infusion rate (mg/kg/min) during the clamp test period. […]

[4] = measurement time period 0-30 min after the infusion

C[S+](CC[C@H](N)C(=O)[O-])C[C@H]1O[C@@H](n2cnc3c(N)ncnc32)[C@H](O)[C@@H]1O (stereo partly drawn) [S-adenosylmethionine]
toxicity (SD-based rats; rat, oral, dose of 500 mg/kg, observed 10 days): no toxicity
autopsy: pathological abnormality of internal organs (SD-based rats; rats, oral 50-500 mg/kg, 10th day): did not develop any pathological abnormality
weight loss (SD-based rats; rats, oral 50-500 mg/kg, 10 day test period): no weight loss
survival at day 10 (SD-based rats; rats, oral single dose 50, 100, 200 and 500 mg/kg): All the rats were alive
blood glucose levels measured at 6 and 8 minutes after the infusion as compared with the SAM(−) group ([1]; OLETF rats, 19th week of 15 mg/kg/day): significantly lower
Blood Glucose Level ([1]; OLETF rats, 19th week of 15 mg/kg/day, 0 min after 0.5 g/kg glucose infusion): 118 mg/dL
Blood Glucose Level ([1]; OLETF rats, 19th week of 15 mg/kg/day, 2 min after 0.5 g/kg glucose infusion): 368 mg/dL
Blood Glucose Level ([1]; OLETF rats, 19th week of 15 mg/kg/day, 6 min after 0.5 g/kg glucose infusion): 291 mg/dL
Blood Glucose Level ([1]; OLETF rats, 19th week of 15 mg/kg/day, 8 min after 0.5 g/kg glucose infusion): 265 mg/dL
Blood Glucose Level ([1]; OLETF rats, 19th week of 15 mg/kg/day, 10 min after 0.5 g/kg glucose infusion): 257 mg/dL
Blood Glucose Level ([1]; OLETF rats, 19th week of 15 mg/kg/day, 15 min after 0.5 g/kg glucose infusion): 224 mg/dL
Blood Glucose Level ([1]; OLETF rats, 19th week of 15 mg/kg/day, 20 min after 0.5 g/kg glucose infusion): 204 mg/dL
Blood Glucose Level ([1]; OLETF rats, 19th week of 15 mg/kg/day, 30 min after 0.5 g/kg glucose infusion): 172 mg/dL
glucose loss rate ([1]; from inclination of log-converted glucose concentrations, 2 to 15 minutes after the infusion): 3.69±0.29 %/min
area obtained by integrating the blood glucose level curve [1, 4]: 234±9.6 (mg/dl).min
area under blood glucose level curve, difference among SAM(+), SAM(−) and Control groups [1, 4]: no significant differences
ratio of weight gain as compared with the SAM(−) group ([2]; OLETF rats, 15 mg/kg/day into abdominal cavity, up to 19 weeks): significantly lower
Body Weight ([2]; week 0): 220 g
Body Weight ([2]; week 1): 299 g
Body Weight ([2]; week 2): 343 g
Body Weight ([2]; week 4): 403 g
Body Weight ([2]; week 8): 464 g
Body Weight ([2]; week 13): 498 g
Body Weight ([2]; week 16): 528 g
Body Weight ([2]; week 19): 565 g
mean glucose infusion rate ([3]; 19th week of 15 mg/kg/day, insulin 12 mU/kg/min, clamp period 60 to 120 min): 16.7 ± 1.70 mg/kg/min
insulin resistance ([3]; conclusion from clamp test): effectively lowers the insulin resistance
